Results: the NIST ThermoML archive (doi:10.1016/j.jct.2018.07.012)

Experiment: mn = molality of the nth substance listed, in mol/kg
Conditions: for surface tension liquid-gas: Maximal bubble pressure; for mass density: 100 kPa, Liquid, Vibrating tube method

O [water] + CC(=O)[O-].CCCCC[n+]1ccn(C)c1
m2 = 0
Conditions	mass density [kg/m3]	surface tension liquid-gas [mN/m]
288.15 K	–	73.5
293.15 K	–	72.8
298.15 K	–	72
303.15 K	–	71.2
308.15 K	994.06	70.4
313.15 K	–	69.6
318.15 K	–	68.7

CC(=O)[O-].CCCn1cc[n+](C)c1 [1-propyl-3-methylimidazolium acetate] + O
Conditions	mass density [kg/m3]	surface tension liquid-gas [mN/m]
288.15 K, m1 = 0.0113	1000.22	73.4
288.15 K, m1 = 0.0172	1000.35	73.2
288.15 K, m1 = 0.0279	1000.55	72.8
288.15 K, m1 = 0.0446	1000.78	72.5
288.15 K, m1 = 0.1119	1001.76	71
288.15 K, m1 = 0.1673	1002.56	69.8
288.15 K, m1 = 0.2244	1003.49	68.6
288.15 K, m1 = 0.2808	1004.43	67.4
288.15 K, m1 = 0.3352	1005.37	66.2
288.15 K, m1 = 0.3925	1006.31	65.1
288.15 K, m1 = 0.448	1007.25	64
288.15 K, m1 = 0.5037	1007.98	63
293.15 K, m1 = 0.0113	999.22	72.6
293.15 K, m1 = 0.0172	999.35	72.5
293.15 K, m1 = 0.0279	999.53	72.1
293.15 K, m1 = 0.0446	999.76	71.8
293.15 K, m1 = 0.1119	1000.68	70.5
293.15 K, m1 = 0.1673	1001.46	69
293.15 K, m1 = 0.2244	1002.37	67.8
293.15 K, m1 = 0.2808	1003.28	66.7
293.15 K, m1 = 0.3352	1004.16	65.5
293.15 K, m1 = 0.3925	1005.08	64.4
293.15 K, m1 = 0.448	1005.89	63.3
293.15 K, m1 = 0.5037	1006.64	62.4
298.15 K, m1 = 0.0113	997.99	71.8
298.15 K, m1 = 0.0172	998.1	71.6
298.15 K, m1 = 0.0279	998.25	71.3
298.15 K, m1 = 0.0446	998.46	70.9
298.15 K, m1 = 0.1119	999.35	69.6
298.15 K, m1 = 0.1673	1000.14	68.4
298.15 K, m1 = 0.2244	1001.01	67
298.15 K, m1 = 0.2808	1001.86	66
298.15 K, m1 = 0.3352	1002.67	64.8
298.15 K, m1 = 0.3925	1003.62	63.7
298.15 K, m1 = 0.448	1004.43	62.6
298.15 K, m1 = 0.5037	1005.19	61.6
303.15 K, m1 = 0.0113	996.54	71
303.15 K, m1 = 0.0172	996.62	70.8
303.15 K, m1 = 0.0279	996.78	70.5
303.15 K, m1 = 0.0446	996.99	70.1
303.15 K, m1 = 0.1119	997.84	68.8
303.15 K, m1 = 0.1673	998.61	67.6
303.15 K, m1 = 0.2244	999.46	66.3
303.15 K, m1 = 0.2808	1000.3	65.1
303.15 K, m1 = 0.3352	1001.12	64
303.15 K, m1 = 0.3925	1001.97	62.9
303.15 K, m1 = 0.448	1002.83	61.8
303.15 K, m1 = 0.5037	1003.47	60.9
308.15 K, m1 = 0.0113	994.86	70.2
308.15 K, m1 = 0.0172	994.92	70
308.15 K, m1 = 0.0279	995.09	69.7
308.15 K, m1 = 0.0446	995.28	69.3
308.15 K, m1 = 0.1119	996.14	68.1
308.15 K, m1 = 0.1673	996.89	66.8
308.15 K, m1 = 0.2244	997.74	65.4
308.15 K, m1 = 0.2808	998.56	64.4
308.15 K, m1 = 0.3352	999.31	63.3
308.15 K, m1 = 0.3925	1000.19	62.2
308.15 K, m1 = 0.448	1000.95	61.2
308.15 K, m1 = 0.5037	1001.66	60.2
313.15 K, m1 = 0.0113	992.97	69.3
313.15 K, m1 = 0.0172	993.03	69.1
313.15 K, m1 = 0.0279	993.19	68.8
313.15 K, m1 = 0.0446	993.36	68.5
313.15 K, m1 = 0.1119	994.21	67.1
313.15 K, m1 = 0.1673	994.99	65.9
313.15 K, m1 = 0.2244	995.82	64.7
313.15 K, m1 = 0.2808	996.66	63.6
313.15 K, m1 = 0.3352	997.38	62.4
313.15 K, m1 = 0.3925	998.21	61.4
313.15 K, m1 = 0.448	998.97	60.4
313.15 K, m1 = 0.5037	999.65	59.5
318.15 K, m1 = 0.0113	990.93	68.5
318.15 K, m1 = 0.0172	991.01	68.4
318.15 K, m1 = 0.0279	991.15	68
318.15 K, m1 = 0.0446	991.33	67.7
318.15 K, m1 = 0.1119	992.2	66.4
318.15 K, m1 = 0.1673	992.92	65.2
318.15 K, m1 = 0.2244	993.77	64.1
318.15 K, m1 = 0.2808	994.56	63
318.15 K, m1 = 0.3352	995.34	61.9
318.15 K, m1 = 0.3925	996.12	60.9
318.15 K, m1 = 0.448	996.87	59.8
318.15 K, m1 = 0.5037	997.59	58.9
